pIC50: −log10 of the molar value.

In assay [1] the target is T1, Recombinant ROCK1 (amino acids 1-477) (Homo sapiens, UniProt Q13464).
T1 construct: Recombinant ROCK1 (amino acids 1-477); by word order, ROCK1 from Carna Biosciences
The assay can be described thus: ROCK inhibition assay, LANCE Ultra TR-FRET kinase assay (ROCK1). In kind it is biochemical. The note with it: 1 μM ATP, 50 nM ULight-CREBtide substrate. In short, it runs like this: (§1)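 Reaction buffer 50 mM HEPES pH 7.5, 10 mM MgCl2, 1 mM EGTA, 2 mM DTT; kinase, ULight-CREBtide (50 nM) and ATP (ROCK1 1 μM, ROCK2 4 μM) react 1 h at room temperature. Phospho-Ser133 detected by europium antibody after 10 mM EDTA stop, TR-FRET ex 320 nm; IC50 calculated.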

In assay [2] the target is T2, Recombinant ROCK2 (amino acids 5-554) (Homo sapiens, UniProt O75116).
T2 construct: ROCK2 (amino acids 5-554); by word order, ROCK2 from SignalChem
The assay can be described thus: ROCK inhibition assay, LANCE Ultra TR-FRET kinase assay (ROCK2). It is filed as biochemical. The note with it: 4 μM ATP, 50 nM ULight-CREBtide substrate. In short, it runs like this:
as §1

T1 sequence (Q13464 1-477): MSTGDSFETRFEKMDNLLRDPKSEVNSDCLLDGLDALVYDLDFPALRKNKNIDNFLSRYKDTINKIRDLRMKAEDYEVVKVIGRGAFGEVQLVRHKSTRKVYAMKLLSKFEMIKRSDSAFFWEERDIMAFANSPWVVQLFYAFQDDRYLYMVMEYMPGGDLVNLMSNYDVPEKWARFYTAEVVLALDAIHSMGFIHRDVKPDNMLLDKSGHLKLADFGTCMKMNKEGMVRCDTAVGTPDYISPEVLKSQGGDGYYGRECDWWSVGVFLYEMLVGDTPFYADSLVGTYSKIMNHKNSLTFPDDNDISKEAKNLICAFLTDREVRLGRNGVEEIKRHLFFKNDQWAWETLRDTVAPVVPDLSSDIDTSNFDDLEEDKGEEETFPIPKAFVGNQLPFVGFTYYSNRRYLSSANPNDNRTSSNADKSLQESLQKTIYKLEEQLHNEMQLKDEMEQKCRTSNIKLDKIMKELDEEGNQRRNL
T2 sequence (O75116 5-554): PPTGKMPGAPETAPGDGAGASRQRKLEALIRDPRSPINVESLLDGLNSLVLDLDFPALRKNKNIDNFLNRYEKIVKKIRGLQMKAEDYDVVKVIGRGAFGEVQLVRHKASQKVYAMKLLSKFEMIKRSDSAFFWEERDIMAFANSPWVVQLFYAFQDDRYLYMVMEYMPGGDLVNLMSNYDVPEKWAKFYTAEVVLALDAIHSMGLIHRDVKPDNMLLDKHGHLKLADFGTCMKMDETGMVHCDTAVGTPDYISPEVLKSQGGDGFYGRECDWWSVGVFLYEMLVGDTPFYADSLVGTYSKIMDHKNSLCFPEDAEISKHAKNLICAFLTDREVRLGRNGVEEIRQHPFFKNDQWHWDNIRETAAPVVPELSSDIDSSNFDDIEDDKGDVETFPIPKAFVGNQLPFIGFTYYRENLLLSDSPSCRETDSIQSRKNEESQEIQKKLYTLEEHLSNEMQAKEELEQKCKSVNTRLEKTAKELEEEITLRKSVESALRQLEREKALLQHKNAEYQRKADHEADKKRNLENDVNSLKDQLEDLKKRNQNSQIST

As for `C[C@H](c1cccc(C(=O)NCC2COC2)c1)n1cnc2cc(-c3ccnn3C)ccc2c1=O` [Compound 479], the pIC50 in assay [1] was 7.00 to 7.96; in assay [2], over 8.00.

Consider `Cc1nocc1-c1ccc2c(=O)n(Cc3cccc(C(=O)Nc4ccc5c(c4)CNCC5)c3)ccc2c1` [Compound 100], for which the pIC50 in assay [1] and in assay [2] was over 8.00 in each case.

Regarding `Cc1nocc1-c1ccc2c(=O)n(Cc3cc(F)cc(C(=O)NCC4CCNCC4)c3)ccc2c1` [Compound 150], the pIC50 is 7.00 to 7.96 in assay [1] and over 8.00 in assay [2].

On to `Cc1nocc1-c1ccc2c(=O)n(Cc3cccc(C(=O)NCC4CCN(C(C)C)CC4)c3)ccc2c1` [Compound 81], for which the pIC50 in assay [1] is 6.30 to 7.00; in assay [2] it was 7.00 to 8.00.

As to `CNC(=O)c1cccc(Cn2cc(CC(C)O)c3cc(-c4cn[nH]c4C(F)F)ccc3c2=O)c1` (stereo not shown) [Compound 559], the values for the pIC50 in assay [1] and in assay [2] were 7.00 to 7.96 and over 8.00, respectively.

Turning to `CN1CCC(CNC(=O)c2cc(F)cc(Cn3ccc4cc(N5CCOCC5)ccc4c3=O)c2)CC1` [Compound 222], the results for the negative logarithm of the IC50 (pIC50) in assay [1] and in assay [2] were 6.30 to 7.00 and 7.00 to 8.00, respectively.

In the case of `Cc1nocc1-c1ccc2c(=O)n([C@H](C)c3cccc(C(=O)NCC4CCNCC4)c3)cnc2c1` [Compound 473], the pIC50 in assay [1] and in assay [2] was over 8.00 each time.

On to `Cn1nccc1-c1ccc2c(=O)n(Cc3cccc(C(=O)NC4CCNCC4)c3)ccc2c1` [Compound 105], for which the negative logarithm of the IC50 (pIC50) in assay [1] and in assay [2] was over 8.00 in each case.

As for `CN1CCC(CNC(=O)c2cc(F)cc(Cn3ccc4cc(-c5c[nH]nc5C(F)(F)F)ccc4c3=O)c2)CC1` [Compound 134], the values for the negative logarithm of the IC50 (pIC50) in assay [1] and in assay [2] were 7.00 to 7.96 and over 8.00, respectively.

For `CN(C)c1cccc(CNC(=O)c2cccc(Cn3cnc4cc(-c5cn[nH]c5C(F)F)ccc4c3=O)c2)c1` [Compound 400], the pIC50 in assay [1] was 6.30 to 7.00; in assay [2], 7.00 to 8.00.

As to `O=C(NCc1ccnc(F)c1)c1cccc(Cn2cnc3cc(-c4cn[nH]c4C(F)F)ccc3c2=O)c1` [Compound 397], the pIC50 in assay [1] was 7.00 to 7.96; in assay [2] it was over 8.00.

On to `CNC(=O)c1cc(F)cc(Cn2ccc3cc(-c4c[nH]nc4Cl)ncc3c2=O)c1` [Compound 249], for which the pIC50 in assay [1] and in assay [2] was over 8.00 in each case.

Take `COc1cccc(C(CN)n2cnc3cc(-c4cn[nH]c4Cl)ccc3c2=O)c1` (stereo not shown) [Compound 500]: the pIC50 in assay [1] and in assay [2] was over 8.00 in each case.

In the case of `Cc1n[nH]cc1-c1ccc2c(=O)n(Cc3cccc(C(=O)Nc4ccc(NS(C)(=O)=O)cc4)c3)ccc2c1` [Compound 37], the pIC50 in assay [1] was under 6.30; in assay [2], 6.30 to 7.00.

Take `CC(C)NC(=O)c1cccc(Cn2ccc3cc(-c4cn[nH]c4)ccc3c2=O)c1` [Compound 28]: the pIC50 in assay [1] is 6.30 to 7.00; in assay [2], 7.00 to 8.00.

As for `O=C(CCc1ccccn1)Nc1cccc(Cn2ccc3cc(-c4c[nH]nc4C(F)(F)F)ccc3c2=O)c1` [Compound 340], the pIC50 was 7.00 to 7.96 in assay [1] and over 8.00 in assay [2].

Regarding `Cc1nocc1-c1ccc2c(=O)n(Cc3cc(F)cc(C(=O)N[C@H]4CC[C@@H](O)CC4)c3)ccc2c1` [Compound 140], the pIC50 in assay [1] and in assay [2] was 6.30 to 7.00 throughout.

Turning to `CNC(=O)c1cccc(Cn2cnc3cc(-c4cn[nH]c4C(F)F)ccc3c2=O)c1` [Compound 391], the pIC50 in assay [1] is 7.00 to 7.96; in assay [2], over 8.00.

Turning to `O=C(NCC1CCOCC1)c1cc(F)cc(Cn2ccc3cc(-c4c[nH]nc4C(F)(F)F)ccc3c2=O)c1` [Compound 135], the pIC50 in assay [1] is 6.30 to 7.00; in assay [2] it was 7.00 to 8.00.

In the case of `CNC(=O)c1cc(Cn2ccc3cc(-c4conc4C)ccc3c2=O)ccc1F` [Compound 317], the pIC50 in assay [1] is 6.30 to 7.00; in assay [2], 7.00 to 8.00.

As for `CNC(=O)c1cccc([C@@H](C)n2cnc3cc(-c4cn[nH]c4Br)ccc3c2=O)c1` [Compound 509, (R)-3-(1-(7-(5-bromo-1H-pyrazol-4-yl)-4-oxoquinazolin-3(4H)-yl)ethyl)-N-methylbenzamide], the pIC50 in assay [1] is 7.00 to 7.96; in assay [2] it was over 8.00.

With `CNC(=O)c1cccc(Cn2ccc3cc(-c4conc4C)ncc3c2=O)c1` [Compound 241], the pIC50 in assay [1] was 6.30 to 7.00; in assay [2], 7.00 to 8.00.

For the compound `COc1cccc(Cn2ccc3cc(-c4cn[nH]c4)ccc3c2=O)c1` [Compound 2, 2-(3-methoxybenzyl)-6-(1H-pyrazol-4-yl)isoquinolin-1(2H)-one], the pIC50 is 6.30 to 7.00 in assay [1] and 7.00 to 8.00 in assay [2].

As to `Cc1nocc1-c1ccc2c(=O)n(Cc3cc(F)cc(C(=O)NCC4COC4)c3)ccc2c1` [Compound 145], the results for the pIC50 in assay [1] and in assay [2] were 6.30 to 7.00 and 7.00 to 8.00, respectively.

Take `Nc1cc(-c2ccc3c(=O)n(Cc4cccc(C(=O)NC5CCOCC5)c4)ccc3c2)ccn1` [Compound 194]: the pIC50 in assay [1] is 6.30 to 7.00; in assay [2] it was 7.00 to 8.00.

For `O=C(NCCN1CCOCC1)c1cc(F)cc(Cn2ccc3cc(N4CCOCC4)ccc3c2=O)c1` [Compound 229], the pIC50 in assay [1] is 7.00 to 7.96; in assay [2], 7.00 to 8.00.

For `O=C(N[C@H]1CC[C@@H](O)CC1)c1cc(F)cc(Cn2ccc3cc(-c4c[nH]nc4C(F)F)ncc3c2=O)c1` [Compound 275], the pIC50 was 7.00 to 7.96 in assay [1] and over 8.00 in assay [2].

As to `[2H]C([2H])([2H])NC(=O)c1cccc(Cn2ccc3cc(-c4c[nH]nc4Cl)ncc3c2=O)c1` [Compound 236], the pIC50 in assay [1] was 7.00 to 7.96; in assay [2], over 8.00.

In the case of `COc1cccc([C@@H](CO)N2CNc3cc(-c4cnoc4C)ccc3C2=O)c1` [Compound 529], the pIC50 in assay [1] and in assay [2] was under 6.30 each time.

In the case of `[2H]C([2H])([2H])NC(=O)c1cccc([C@@H](C)n2cnc3cc(-c4cn[nH]c4C(F)F)ccc3c2=O)c1` [Compound 458], the pIC50 in assay [1] was 7.00 to 7.96; in assay [2] it was over 8.00.

On to `CNC(=O)c1cccc(C(C)n2cc(CCO)c3cc(-c4conc4C)ccc3c2=O)c1` (stereo not shown) [Compound 553], for which the values for the pIC50 in assay [1] and in assay [2] were 6.30 to 7.00 and 7.00 to 8.00, respectively.

Regarding `Cc1nocc1-c1ccc2c(=O)n(Cc3cccc(C(=O)Nc4ccc5c(c4)CCNC5)c3)ccc2c1` [Compound 96], the pIC50 in assay [1] and in assay [2] was over 8.00 each time.

In the case of `CN1CCC(NC(=O)c2cccc(Cn3cnc4cc(-c5ccnn5C)ccc4c3=O)c2)CC1` [Compound 430], the negative logarithm of the IC50 (pIC50) is 7.00 to 7.96 in assay [1] and over 8.00 in assay [2].

`Cc1n[nH]cc1-c1ccc2c(=O)n(Cc3cccc(C(=O)Nc4cccc(S(N)(=O)=O)c4)c3)ccc2c1` [Compound 34]: the pIC50 in assay [1] was under 6.30; in assay [2] it was 6.30 to 7.00.

In the case of `CO[C@H]1CC[C@H](NC(=O)c2cc(F)cc(Cn3ccc4cc(-c5conc5C)ccc4c3=O)c2)CC1` [Compound 141], the figures for the pIC50 in assay [1] and in assay [2] were under 6.30 and 6.30 to 7.00, respectively.

`COc1cccc(Cn2cnc3cc(-c4conc4C)ccc3c2=O)c1` [Compound 357]: the pIC50 in assay [1] was 7.00 to 7.96; in assay [2] it was 7.00 to 8.00.

As for `Cn1nccc1-c1ccc2c(=O)n(Cc3cccc(C(=O)NCc4ccnc(F)c4)c3)ccc2c1` [Compound 117], the negative-log IC50 (pIC50) in assay [1] is 6.30 to 7.00; in assay [2], 7.00 to 8.00.

With `CN1CCC(CNC(=O)c2cccc(Cn3ccc4cc(-c5c[nH]nc5Cl)ccc4c3=O)c2)CC1` [Compound 64], the pIC50 in assay [1] and in assay [2] was over 8.00 in each case.

`O=C(NCC1COC1)c1cc(F)cc(Cn2ccc3cc(-c4c[nH]nc4C(F)(F)F)ccc3c2=O)c1` [Compound 136]: the results for the pIC50 in assay [1] and in assay [2] were 7.00 to 7.96 and over 8.00, respectively.

`Cn1ccc(NC(=O)c2cc(F)cc(Cn3ccc4cc(-c5cn[nH]c5C(F)(F)F)ccc4c3=O)c2)n1` [Compound 128]: the results for the pIC50 in assay [1] and in assay [2] were 7.00 to 7.96 and over 8.00, respectively.

Turning to `CNC(=O)c1cccc([C@@H](C)n2cnc3cc(-c4cn[nH]c4OC)ncc3c2=O)c1` [Compound 571], the values for the pIC50 in assay [1] and in assay [2] were 7.00 to 7.96 and over 8.00, respectively.

As for `Cc1nocc1-c1ccc2c(=O)n(Cc3cc(F)cc(C(=O)N[C@H]4CC[C@H](O)CC4)c3)ccc2c1` [Compound 139], the pIC50 in assay [1] and in assay [2] was 6.30 to 7.00 throughout.

Regarding `Cc1nocc1-c1ccc2c(=O)n(Cc3cc(F)cc(C(=O)Nc4ccc5c(c4)CN(C4CC4)CC5)c3)ccc2c1` [Compound 161], the values for the pIC50 in assay [1] and in assay [2] were 7.00 to 7.96 and over 8.00, respectively.

For the compound `CNC(=O)c1cccc(Cn2ccc3cc(-c4cc[nH]c4C)ccc3c2=O)c1` [Compound 306], the pIC50 in assay [1] and in assay [2] was 6.30 to 7.00 each time.

Take `CC(=O)Nc1cccc(Cn2ccc3cc(-c4c[nH]nc4C(F)F)ccc3c2=O)c1` [Compound 341]: the negative logarithm of the IC50 (pIC50) was 6.30 to 7.00 in assay [1] and 7.00 to 8.00 in assay [2].

With `[2H]C([2H])([2H])NC(=O)c1cc(F)cc(Cn2cnc3cc(-c4cn[nH]c4C(F)(F)F)ccc3c2=O)c1` [Compound 387], the pIC50 in assay [1] was 7.00 to 7.96; in assay [2] it was over 8.00.

Take `Nc1cc(-c2ccc3c(=O)n(Cc4cc(F)cc(C(=O)NC5COC5)c4)ccc3c2)ccn1` [Compound 202]: the pIC50 in assay [1] is under 6.30; in assay [2], 6.30 to 7.00.

`O=C(NCC1COC1)c1cccc(Cn2ccc3cc(-c4c[nH]nc4C(F)F)ccc3c2=O)c1` [Compound 58]: the negative-log IC50 (pIC50) is 7.00 to 7.96 in assay [1] and over 8.00 in assay [2].

Turning to `CNC(=O)c1cc(Cl)cc(Cn2ccc3cc(-c4cn[nH]c4C(F)(F)F)ccc3c2=O)c1` [Compound 285], the negative logarithm of the IC50 (pIC50) in assay [1] was 6.30 to 7.00; in assay [2] it was 7.00 to 8.00.

As to `O=C(NCC1CCNCC1)c1cccc(Cn2ccc3cc(-c4c[nH]nc4C(F)F)ccc3c2=O)c1` [Compound 57], the pIC50 in assay [1] and in assay [2] was over 8.00 in each case.

These data come from patent US12064426B2, “Selective inhibitors of ROCK1 and ROCK2 protein kinases and uses thereof” (GENOSCO Inc., priority 2021, dated 2024).
